Values quoted from earlier work as cited in US7659264B2, “CGRP receptor antagonists” (Merck Sharp & Dohme Corp., priority 2004, dated 2010).
Where no end group is shown, it is not given here.

Tests used:
facial blood flow [1] = details: marmoset, electrical stimulation of the trigeminal ganglion
migraine = details: clinical studies, intravenously administered
[2] = system: diameter of the middle meningeal artery; details: rats, electrical stimulation of the dura mater, prior administration
facial blood flow [3] = details: rat, trigeminal ganglion stimulation

| Compound | effect on increase in facial blood flow (facial blood flow [1]) | acute treatment for migraine (migraine) | effect on increased diameter of the middle meningeal artery [2] | effect on increased facial blood flow (facial blood flow [3]) |
| --- | --- | --- | --- | --- |
| NCCCC[C@H](NC(=O)[C@@H](Cc1cc(Br)c(O)c(Br)c1)NC(=O)N1CCC(N2Cc3ccccc3NC2=O)CC1)C(=O)N1CCN(c2ccncc2)CC1 [BIBN4096BS] | could be blocked | safe and effective acute treatment for migraine |  |  |
| CGRP(8-37): a peptide CGRP antagonist; fragment of CGRP that lacks seven N-terminal amino acid residues (VTHRLAGLLSRSGGVVKNNFVPTNVGSKAF; ends and bridges not checked; UniProt P06881 90-119, looked up, fragment) |  |  | blocked | inhibited |
